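96-well plates; 48 h exposure; 5 concentrations. Endpoints by linear interpolation between flanking doses. Not reached: highest tested concentration assigned. TGI marks complete inhibition of growth.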
Key:
Assay in all cases: NCI anticancer screen, dose series, 48 h
786-0 renal = test system: 786-0 renal
A498 renal = test system: A498 renal
A549 NSCLC = test system: A549 NSCLC
ACHN renal = test system: ACHN renal
BT-549 breast = test system: BT-549 breast
CAKI-1 renal = test system: CAKI-1 renal
CCRF-CEM leukemia = test system: CCRF-CEM leukemia
COLO 205 colon = test system: COLO 205 colon
DU-145 prostate = test system: DU-145 prostate
EKVX NSCLC = test system: EKVX NSCLC
HCC-2998 colon = test system: HCC-2998 colon
HCT-116 colon = test system: HCT-116 colon
HCT-15 colon = test system: HCT-15 colon
HL-60(TB) leukemia = test system: HL-60(TB) leukemia
HOP-62 NSCLC = test system: HOP-62 NSCLC
HOP-92 NSCLC = test system: HOP-92 NSCLC
HS 578T breast = test system: HS 578T breast
HT29 colon = test system: HT29 colon
IGROV1 ovarian = test system: IGROV1 ovarian
K-562 leukemia = test system: K-562 leukemia
KM12 colon = test system: KM12 colon
LOX IMVI melanoma = test system: LOX IMVI melanoma
M14 melanoma = test system: M14 melanoma
MALME-3M melanoma = test system: MALME-3M melanoma
MCF7 breast = test system: MCF7 breast
MDA-MB-231 breast = test system: MDA-MB-231 breast
MDA-MB-435 = test system: MDA-MB-435
MDA-N = test system: MDA-N
MOLT-4 leukemia = test system: MOLT-4 leukemia
NCI-H226 lung = test system: NCI-H226 lung
NCI-H23 lung = test system: NCI-H23 lung
NCI-H460 lung = test system: NCI-H460 lung
NCI-H522 lung = test system: NCI-H522 lung
NCI/ADR-RES ovarian = test system: NCI/ADR-RES ovarian
OVCAR-3 ovarian = test system: OVCAR-3 ovarian
OVCAR-4 ovarian = test system: OVCAR-4 ovarian
OVCAR-5 ovarian = test system: OVCAR-5 ovarian
OVCAR-8 ovarian = test system: OVCAR-8 ovarian
PC-3 prostate = test system: PC-3 prostate
RPMI-8226 leukemia = test system: RPMI-8226 leukemia
RXF 393 renal = test system: RXF 393 renal
SF-268 CNS = test system: SF-268 CNS
SF-295 CNS = test system: SF-295 CNS
SF-539 CNS = test system: SF-539 CNS
SK-MEL-2 melanoma = test system: SK-MEL-2 melanoma
SK-MEL-28 melanoma = test system: SK-MEL-28 melanoma
SK-MEL-5 melanoma = test system: SK-MEL-5 melanoma
SK-OV-3 ovarian = test system: SK-OV-3 ovarian
SN12C renal = test system: SN12C renal
SNB-19 CNS = test system: SNB-19 CNS
SNB-75 CNS = test system: SNB-75 CNS
SR leukemia = test system: SR leukemia
SW-620 colon = test system: SW-620 colon
T-47D breast = test system: T-47D breast
TK-10 renal = test system: TK-10 renal
U251 CNS = test system: U251 CNS
UACC-257 melanoma = test system: UACC-257 melanoma
UACC-62 melanoma = test system: UACC-62 melanoma
UO-31 renal = test system: UO-31 renal

For `COC(=O)C1=C(C)NC(C)=C([N+](=O)[O-])C1c1cccc(NO)c1` (configuration not stated), the TGI (786-0 renal) was > 87.9 µM, the TGI (A498 renal) was 70 µM and the TGI (A549 NSCLC) was > 89.6 µM. For the same compound, the TGI (ACHN renal) was > 44.9 µM, the TGI (BT-549 breast) was 16.4 µM and the TGI (CAKI-1 renal) was > 52.7 µM. The TGI (CCRF-CEM leukemia) was > 22.9 µM, the TGI (COLO 205 colon) was 4.74 µM and the TGI (DU-145 prostate) was > 100 µM. For the same compound, the TGI (EKVX NSCLC) was > 61.5 µM, the TGI (HCC-2998 colon) was 16.8 µM and the TGI (HCT-116 colon) was 10.5 µM. For the same compound, the TGI (HCT-15 colon) was 9.77 µM, the TGI (HL-60(TB) leukemia) was 5.57 µM and the TGI (HOP-62 NSCLC) was > 100 µM. For the same compound, the TGI (HOP-92 NSCLC) was 28 µM, the TGI (HS 578T breast) was 38.6 µM and the TGI (HT29 colon) was 9.79 µM. For the same compound, the TGI (IGROV1 ovarian) was 22.9 µM, the TGI (K-562 leukemia) was > 27.1 µM and the TGI (KM12 colon) was 6.85 µM. The TGI (LOX IMVI melanoma) was 15.5 µM, the TGI (M14 melanoma) was 12.3 µM and the TGI (MALME-3M melanoma) was 22.9 µM. It also gave a TGI (MCF7 breast) of 27.2 µM, a TGI (MDA-MB-231 breast) of 17 µM and a TGI (MDA-MB-435) of 5.3 µM. For the same compound, the TGI (MDA-N) was 4.14 µM, the TGI (MOLT-4 leukemia) was > 26 µM and the TGI (NCI-H226 lung) was > 47.3 µM. For the same compound, the TGI (NCI-H23 lung) was > 100 µM, the TGI (NCI-H460 lung) was 17.5 µM and the TGI (NCI-H522 lung) was 13.9 µM. The TGI (NCI/ADR-RES ovarian) was 46.6 µM, the TGI (OVCAR-3 ovarian) was 19.5 µM and the TGI (OVCAR-4 ovarian) was 40.6 µM. For the same compound, the TGI (OVCAR-5 ovarian) was > 100 µM, the TGI (OVCAR-8 ovarian) was 37.5 µM and the TGI (PC-3 prostate) was 26.1 µM. For the same compound, the TGI (RPMI-8226 leukemia) was 12.6 µM, the TGI (RXF 393 renal) was > 85.4 µM and the TGI (SF-268 CNS) was > 100 µM. For the same compound, the TGI (SF-295 CNS) was 23.1 µM, the TGI (SF-539 CNS) was 37 µM and the TGI (SK-MEL-2 melanoma) was > 43.8 µM. The TGI (SK-MEL-28 melanoma) was > 69.4 µM, the TGI (SK-MEL-5 melanoma) was 15 µM and the TGI (SK-OV-3 ovarian) was > 85.6 µM. The TGI (SN12C renal) was > 30.8 µM, the TGI (SNB-19 CNS) was > 100 µM and the TGI (SNB-75 CNS) was > 100 µM. For the same compound, the TGI (SR leukemia) was 8.93 µM, the TGI (SW-620 colon) was 16.5 µM and the TGI (T-47D breast) was > 52.4 µM. For the same compound, the TGI (TK-10 renal) was 26 µM, the TGI (U251 CNS) was > 100 µM and the TGI (UACC-257 melanoma) was 28.1 µM. For the same compound, the TGI (UACC-62 melanoma) was > 31.6 µM and the TGI (UO-31 renal) was 24.1 µM.
For `CC(=O)Oc1cccc2c1C(=O)c1c(OC(C)=O)cc(C)cc1C2=O`, the TGI (786-0 renal) was 72.5 µM, the TGI (A498 renal) was > 100 µM and the TGI (A549 NSCLC) was > 100 µM. The TGI (ACHN renal) was > 100 µM, the TGI (BT-549 breast) was > 100 µM and the TGI (CAKI-1 renal) was > 100 µM. For the same compound, the TGI (CCRF-CEM leukemia) was > 100 µM, the TGI (COLO 205 colon) was > 100 µM and the TGI (DU-145 prostate) was > 100 µM. For the same compound, the TGI (EKVX NSCLC) was > 100 µM, the TGI (HCC-2998 colon) was > 100 µM and the TGI (HCT-116 colon) was > 100 µM. The TGI (HCT-15 colon) was > 100 µM, the TGI (HL-60(TB) leukemia) was > 100 µM and the TGI (HOP-62 NSCLC) was > 100 µM. The TGI (HOP-92 NSCLC) was > 100 µM, the TGI (HS 578T breast) was > 100 µM and the TGI (HT29 colon) was > 100 µM. For the same compound, the TGI (IGROV1 ovarian) was > 100 µM, the TGI (K-562 leukemia) was > 100 µM and the TGI (KM12 colon) was > 100 µM. For the same compound, the TGI (LOX IMVI melanoma) was > 100 µM, the TGI (M14 melanoma) was > 100 µM and the TGI (MALME-3M melanoma) was > 100 µM. The TGI (MCF7 breast) was > 100 µM, the TGI (MDA-MB-231 breast) was > 100 µM and the TGI (MDA-MB-435) was > 100 µM. For the same compound, the TGI (MDA-N) was > 100 µM, the TGI (MOLT-4 leukemia) was > 100 µM and the TGI (NCI-H226 lung) was > 100 µM. For the same compound, the TGI (NCI-H23 lung) was > 100 µM, the TGI (NCI-H460 lung) was > 100 µM and the TGI (NCI-H522 lung) was > 100 µM. For the same compound, the TGI (NCI/ADR-RES ovarian) was > 100 µM, the TGI (OVCAR-3 ovarian) was > 100 µM and the TGI (OVCAR-4 ovarian) was > 100 µM. For the same compound, the TGI (OVCAR-5 ovarian) was > 100 µM, the TGI (OVCAR-8 ovarian) was > 100 µM and the TGI (PC-3 prostate) was > 100 µM. For the same compound, the TGI (RPMI-8226 leukemia) was 43.8 µM, the TGI (RXF 393 renal) was > 100 µM and the TGI (SF-268 CNS) was > 100 µM. The TGI (SF-295 CNS) was > 100 µM, the TGI (SF-539 CNS) was > 100 µM and the TGI (SK-MEL-2 melanoma) was > 100 µM. For the same compound, the TGI (SK-MEL-28 melanoma) was > 100 µM, the TGI (SK-MEL-5 melanoma) was > 100 µM and the TGI (SK-OV-3 ovarian) was > 100 µM. The TGI (SN12C renal) was > 100 µM, the TGI (SNB-19 CNS) was > 100 µM and the TGI (SNB-75 CNS) was > 100 µM. For the same compound, the TGI (SR leukemia) was > 100 µM, the TGI (SW-620 colon) was > 100 µM and the TGI (T-47D breast) was > 100 µM. The TGI (TK-10 renal) was > 100 µM, the TGI (U251 CNS) was > 100 µM and the TGI (UACC-257 melanoma) was > 100 µM. The TGI (UACC-62 melanoma) was > 100 µM.
